Measured values as given in article PMC9466626, “Discovery of new 1H-pyrazolo[3,4-d]pyrimidine derivatives as anticancer agents targeting EGFR^WT and EGFR^T790M” (Journal of Enzyme Inhibition and Medicinal Chemistry, 2022).
Several values for one entry are separate records, joined by “and”; a condition that tells them apart may be missing. Equal entries are not always repeated. Where two headings read alike, the source gives them in different places.

Legend:
WI-38 = assay: In vitro cytotoxicity against normal cells (MTT), WI-38
Experimental: (§6) Next, the wells were incubated for 12 h in a 5% CO 2 incubator at 37 °C. Then, for each well, the growth medium was exchanged with 0.1 ml of fresh medium containing graded concentrations of the test compounds to be or equal DMSO and incubated for two days. Then 10 μl MTT solution (5 μg/ml) was added to each well, and the cells were incubated for additional 4 h. The crystals of MTT-formazan were dissolved in 100 μl of DMSO; the absorbance of each well was measured at 490 nm using an automatic ELISA reader system (TECAN, CHE). The IC 50 values were calculated using the nonlinear regression fitting models (Graph Pad, Prism Version 5). The data represented the mean of three independent experiments in triplicate and were expressed as means ± SD.

HCT-116 = assay: In vitro anti-proliferative MTT assay, HCT-116; assay type: cell-based, human
Experimental: The cytotoxic activities of the synthesised compounds were assessed against two human cancer cell lines (lung, A549) and (colon HCT-116) using an MTT assay. These two cell lines were selected in this test due to the overexpression of EGFR in human lung and colon cancer cell lines[48]^,[49]. The tested cells were reported to have a high expression level of EGFR.
In vitro cytotoxicity was carried out for the synthesised compounds against A549, HCT-116, and WI-38 cell lines using the MTT assay protocol[52–55] as described in Supplementary data. […]
(§1) 1.1. In vitro antiproliferative activities
The in vitro antiproliferative activities of all the synthesized compounds against two human tumor cell lines namely, (lung, A549) and (colon HCT-116) and one normal cell line (WI-38) were evaluated quantitatively as described in the literature, using MTT assay protocol . two commercially available drugs (erlotinib) were used in this test as positive controls. The anti-proliferative activity was assessed quantitatively as follows.
(§2) Human cancer cell lines were dropped in 96 -well plates at a density of 3-8 × 10^3 cells/well.
(§3) Next, the wells were incubated for 12 h in a 5% CO 2 incubator at 37 °C. Then, for each well, the growth medium was exchanged with 0.1 ml of fresh medium containing graded concentrations of the test compounds to be or equal DMSO and incubated for two days. Then 10 μl MTT solution ([…]) was added to each well, and the cells were incubated for additional 4 h. The crystals of MTT-formazan were dissolved in 100 μl of DMSO; the absorbance of each well was measured at 490 nm using an automatic ELISA reader system (TECAN, CHE). The IC 50 values were calculated using the nonlinear regression fitting models (Graph Pad, Prism Version 5). The data represented the mean of three independent experiments in triplicate and were expressed as means ± SD. The IC50 value was defined as the concentration at which 50% of the cells could survive.
(§4) The results were expressed as growth inhibitory concentration (IC50) values and […]

A549 cells [1] = assay: Cell cycle analysis (flow cytometry, PI staining); assay type: cell-based, human
Experimental: The effect of compound 12b on cell cycle distribution was performed using the propidium iodide (PI) staining technique as described in Supplementary data[56–58]. […]
4.1.2. In-vitro DNA-Flow cytometric (cell cycle) analysis.
h. Then, the tested cells were collected by trypsinization and washed in PBS. Ice-cold absolute
ethanol was used for fixation of the collected cells. The cells were stained with Cycle TESTTM
PLUS DNA Reagent Kit (BD Biosciences, San Jose, CA) according to the manufacturer's
instructions. Cell-cycle distribution was evaluated using a flow cytometer. […]

A549 cells [2] = assay: Annexin V-FITC apoptosis assay; assay type: cell-based, human
Experimental: The effect of compound 12b on cell apoptosis was investigated as described in Supplementary data[59]. […]
4.1.3. Annexin V-FITC apoptosis assay.
To detect the apoptosis induced by compound 12b, a549 cells were seeded and incubated overnight and then treated with compound 12b at concentrations of 8.21 µM µM for 48 h. DMSO was chosen as the negative control. After that, the cells were collected and washed with PBS two successive times. The cells were exposed to centrifugation. Apoptosis detection kit (BD Biosciences, San Jose, CA) was used in this test. According to the manufacturer's protocol the cells were stained by Annexin V-FITC and propidium iodide (PI) in the binding buffer for 20min at room temperature in the dark. Using a flow cytometer, Annexin V-FITC and PI binding were analyzed. flowjo software was used to analyze the frequencies in all quadrants.

in vitro = conditions: human, WI-38 normal cells
Experimental: as §6

BAX = assay: qRT-PCR gene expression of BAX in A549 cells; assay type: cell-based, human; conditions: A549, 48 h, control set to 1
Experimental: (§5) The effect of compound 12b on the expression of BAX and Bcl‐2 was determined using qRT-PCR as described in Supplementary data[60–62].

BAX/Bcl-2 ratio = BAX/Bcl-2 ratio from qRT-PCR in A549 cells; assay type: cell-based, human; conditions: A549, 48 h, control set to 1
Experimental: as §5

A549 = assay: In vitro anti-proliferative MTT assay, A549; assay type: cell-based, human; conditions: for IC50: Homo sapiens, A549
Experimental: These two cell lines were selected in this test due to the overexpression of EGFR in human lung and colon cancer cell lines[48]^,[49]. The tested cells were reported to have a high expression level of EGFR. […]
as §1
The in vitro antiproliferative activities of all the synthesized compounds against two human […]
evaluated quantitatively as described in the literature, using MTT assay protocol . two […]
proliferative activity was assessed quantitatively as follows.
as §2
as §3, with “IC50 value was defined as the concentration at which 50% of the cells could survive.” left out
as §4

Bcl-2 = assay: qRT-PCR gene expression of Bcl-2 in A549 cells; assay type: cell-based, human; conditions: A549, 48 h
Experimental: as §5

[3] = A549, 8.21 µM, 48 h, mean ± SEM
[4] = A549, 8.21 µM, 48 h, mean ± SEM, listed as 12 b
[5] = A549, 48 h, mean ± SEM, listed as 12 b

## CC(=NNc1nc(Nc2ccccc2)nc2c1cnn2-c1ccccc1)c1ccc(Cl)cc1 [Compound 12b, 4–(2-(1–(4-Chlorophenyl)ethylidene)hydrazinyl)-N,1-diphenyl-1H-pyrazolo[3,4-d]pyrimidin-6-amine]
WI-38; cytotoxicity against WI-38 / cytotoxicity against A549
  Selectivity index (SI) A549: 4.77
WI-38; cytotoxicity against WI-38 / cytotoxicity against HCT-116
  Selectivity index (SI) HCT-116: 2.00
WI-38; supplement graph
  HillSlope (best-fit value), WI-38: -0.4504
  LogIC50 (best-fit value), WI-38: 1.593
HCT-116; Homo sapiens, HCT-116, MTT, mean of three experiments, read-out: In vitro cytotoxicity IC50, HCT-116
  IC50: 19.6 µM
HCT-116; supplement IC50 graph
  HillSlope (best-fit value), HCT-116: -0.3805
  LogIC50 (best-fit value), HCT-116: 1.291
A549 cells [1]; A549
  cell cycle arrest, phases: S and G2/M phases
A549 cells [1]; [3]
  Cell cycle distribution % G2/M: 28.55%
  Cell cycle distribution %G1: 28.04%
  Cell cycle distribution %S: 42.39%
  Cell cycle distribution %Sub-G1: 0.89 ± 0.31%
A549 cells [1]; [4]
  Cell cycle distribution % G2/M: 28.55 ± 1.61 %
  Cell cycle distribution %G1: 28.04 ± 2.78 %
  Cell cycle distribution %S: 42.39 ± 3.50 %
A549 cells [1]; vs untreated A549, 48 h
  fold decrease in percentage of cells in G1 phase: ~2 fold
  fold increase in % G2/M: 1.7 fold
  fold increase in percentage of cells in S phase: 1.5 fold
A549 cells [2]; A549, 48 h, mean ± SEM
  Apoptosis Early (Right Bottom): 67.69%
  Apoptosis Late (Right Top): 0.64%
  Necrosis (Left Top): 0.10 ± 0.02%
  Viable (Left Bottom): 31.57 ± 4.64%
A549 cells [2]; [5]
  Apoptosis Early (Right Bottom): 67.69 ± 4.86 %
  Apoptosis Late (Right Top): 0.64 ± 0.30%
A549 cells [2]; vs untreated A549, 48 h
  fold decrease in the ratio of viable cells: 3 fold
  fold increase in the early apoptosis ratio: 11 fold
  fold increase in the late apoptosis ratio: 1.5 fold
In vitro
  IC50 at 2 days: 39.1 µM
BAX
  Gene expression (Fold Change) BAX: 3.3 Fold Change and 3.33 ± 0.37 Fold Change
BAX/Bcl-2 ratio
  Gene expression (Fold Change) BAX/Bcl-2 ratio: 8.8 Fold Change and 8.80 ± 1.41 Fold Change
A549; MTT, mean of three experiments, read-out: In vitro cytotoxicity IC50, A549
  IC50: 8.21 µM
A549; supplement IC50 graph, unit inferred, read-out: IC50 (best-fit value of graph), A549
  IC50: 8.22 µM
A549; supplement IC50 graph
  HillSlope (best-fit value), A549: -0.3430
  LogIC50 (best-fit value), A549: 0.9146
Bcl-2; control set to 1
  Gene expression (Fold Change) Bcl-2: 0.40 ± 0.08 Fold Change
Bcl-2; vs untreated
  fold decrease in Bcl-2 gene expression: 2.5 fold
